The record followed here is ChEMBL document CHEMBL1146414, “New Agelasine Compound from the Marine Sponge Agelas mauritiana as an Antifouling Substance against Macroalgae” (J Nat Prod, 1997).

The source made the active and inactive calls. The rule behind the calls is not given here.

The test system of data set [1] is Ulva. Nature of the data set: Antifouling activity against Ulva conglobata spores assessed as germination and attachment rate at 2.5 to 10.0 ppm. It is filed as functional, organism-based.
The subject of data set [2] is Ulva. Briefly: Toxicity against Ulva conglobata spores at 50 ppm. It is filed as organism-based. Particulars: in vivo.
Data set [3] concerns Anagnostidinema amphibium. Nature of the data set: Antimicroalgal activity against Oscillatoria amphibia at 1.0 to 2.5 ppm. It is filed as functional, organism-based.
For a further data set, the system named is Skeletonema costatum. Briefly: Antimicroalgal activity against Skeletonema costatum at 1.0 to 2.5 ppm. It is filed as functional, organism-based.
In another data set the test system is Prorocentrum micans. Briefly: Antimicroalgal activity against Prorocentrum micans at 1.0 to 2.5 ppm. It is filed as functional, organism-based.
The next data set has as its system Brachiomonas submarina. Briefly: Antimicroalgal activity against Brachiomonas submarina at 1.0 to 2.5 ppm. It is filed as functional, organism-based.
The next data set has as its system Staphylococcus aureus. Briefly: Antibacterial activity against Staphylococcus aureus. It counts as functional, organism-based.
The subject of the next data set is Salinivibrio costicola. Briefly: Antibacterial activity against sVibrio costicola. It counts as functional, organism-based.
The test system of another data set is Escherichia coli. Briefly: Antibacterial activity against Escherichia coli. It is filed as functional, organism-based.
For another data set, the system named is Bacillus subtilis. Briefly: Antibacterial activity against Bacillus subtilis. It counts as functional, organism-based.

`C/C(=C\C[n+]1cn(C)c2ncnc(N)c21)CC[C@@]1(C)C2=CCCC(C)(C)[C@@H]2CC[C@@H]1C.[Cl-]`: the outcome (in the data set with Ulva [1]; in [3]; in the data set with Skeletonema costatum; with Prorocentrum micans; in the data set with Brachiomonas submarina) was Active. Also, in the data set on Ulva [2], the Activity entry is on record as “Toxic”. For the same molecule, the result in the data set with Staphylococcus aureus, in the data set on Salinivibrio costicola, in the data set with Escherichia coli and in the data set on Bacillus subtilis was inactive.
